From patent US10519134B2, “Pyrazole compounds and methods of making and using same” (Lundbeck La Jolla Research Center, Inc., priority 2015, dated 2019)

Columns and labels:
[1] = molecular target: T1, FAAH (Mus musculus, UniProt O08914); assay: In vitro competitive activity-based protein profiling (mouse), FAAH gel band; type: biochemical; settings: for IC50: mouse; for inhibition at 1 µM: read-out: FAAH % inh. 1 μM
T1 construct: Proteomes (mouse brain membrane fraction or cell lysates); from tissue; host or cells: mouse brain membrane fraction (or cell lysates)
T1 sequence (O08914 1-579): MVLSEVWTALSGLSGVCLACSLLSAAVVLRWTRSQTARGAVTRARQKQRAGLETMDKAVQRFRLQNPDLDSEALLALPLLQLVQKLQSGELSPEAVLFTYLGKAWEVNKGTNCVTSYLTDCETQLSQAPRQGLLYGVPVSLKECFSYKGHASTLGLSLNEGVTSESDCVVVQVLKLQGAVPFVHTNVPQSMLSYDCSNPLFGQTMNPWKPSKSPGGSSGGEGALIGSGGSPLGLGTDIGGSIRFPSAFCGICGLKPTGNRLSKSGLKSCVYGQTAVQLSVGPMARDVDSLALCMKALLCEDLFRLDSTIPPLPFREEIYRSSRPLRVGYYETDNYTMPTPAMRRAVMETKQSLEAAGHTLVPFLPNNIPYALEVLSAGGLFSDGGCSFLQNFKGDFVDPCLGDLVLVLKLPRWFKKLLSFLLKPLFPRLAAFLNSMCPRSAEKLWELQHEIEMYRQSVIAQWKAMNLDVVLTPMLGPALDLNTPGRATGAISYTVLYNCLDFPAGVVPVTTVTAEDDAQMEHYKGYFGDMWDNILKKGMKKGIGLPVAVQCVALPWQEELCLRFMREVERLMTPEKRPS
How it was run: (§1)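 Gel-based competitive ABPP: proteome 1.0 mg/mL, inhibitor 30 min 37 °C, then FP-Rh or HT-01 probe (stock 50 μM) 30 min 37 °C; SDS quench, SDS-PAGE, in-gel fluorescence of the enzyme band quantified.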

[2] = molecular target: T2, MAGL (Mus musculus, UniProt O35678); assay: In vitro competitive activity-based protein profiling (mouse), MAGL gel band; type: biochemical; settings: for IC50: mouse; for inhibition at 1 µM: read-out: MAGL % inh. 1 μM
T2 construct: Proteomes (mouse brain membrane fraction or cell lysates); from tissue; host or cells: mouse brain membrane fraction (or cell lysates)
T2 sequence (O35678 1-303): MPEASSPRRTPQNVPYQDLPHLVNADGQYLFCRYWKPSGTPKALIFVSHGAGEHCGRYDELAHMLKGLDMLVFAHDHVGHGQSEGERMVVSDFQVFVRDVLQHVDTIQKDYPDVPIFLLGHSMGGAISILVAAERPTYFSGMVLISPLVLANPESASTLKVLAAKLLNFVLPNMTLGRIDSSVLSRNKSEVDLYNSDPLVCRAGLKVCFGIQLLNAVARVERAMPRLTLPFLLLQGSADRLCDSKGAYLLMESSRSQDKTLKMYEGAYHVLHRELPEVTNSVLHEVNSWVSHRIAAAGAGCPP
How it was run: as §1

[3] = molecular target: T2, MAGL; assay: Mouse brain proteomes from inhibitor treated mice (oral gavage, sacrificed 4 h after administration); type: in vivo; settings: read-out: MAGL % inh. 5 mg/kg
How it was run: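 Wild-type C57Bl/6J mice got compound by oral gavage in polyethylene glycol vehicle. Brain proteomes were prepared 4 h after dosing and analyzed for serine hydrolase activity.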

Row | IC50 [1] [nM] | inhibition at 1 µM [1] [%] | IC50 [2] [nM] | inhibition at 1 µM [2] [%] | inhibition at 5 mg/kg [3] [%] | Structure (SMILES)
1 | 1000 to 10000 | 0 to 25 | ≤ 100 | ≥ 75 | ≥ 75 | CC(=O)Nc1ccn(C(=O)N2CCN(Cc3ccc(Cl)cc3N3CCN(C4CC4)CC3)CC2)n1 [Example 58, N-(1-(4-(4-chloro-2-(4-cyclopropylpiperazin-1-yl)benzyl)piperazine-1-carbonyl)-1H-pyrazol-3-yl)acetamide]
2 | 1000 to 10000 | 0 to 25 | ≤ 100 | ≥ 75 | 0 to 25 | CC(=O)Nc1ccn(C(=O)N2CCC3(CCCN3Cc3ccc(Cl)c(N4CCCC4)c3)CC2)n1 [Example 104, N-(1-(1-(4-chloro-3-(pyrrolidin-1-yl)benzyl)-1,8-diazaspiro[4.5]decane-8-carbonyl)-1H-pyrazol-3-yl)acetamide]
3 | 1000 to 10000 | 0 to 25 | ≤ 100 | ≥ 75 | 50 to 75 | CC(=O)Nc1ccn(C(=O)N2CCN(Cc3ccc(C(F)(F)F)cc3N3CCOCC3)CC2)n1 [Example 3, N-(1-(4-(2-morpholino-4-(trifluoromethyl)benzyl)piperazine-1-carbonyl)-1H-pyrazol-3-yl)acetamide]
4 | 1000 to 10000 | 0 to 25 | ≤ 100 | ≥ 75 | 25 to 50 | CC(=O)Nc1ccn(C(=O)N2CCC3(CCCN3Cc3ccc(C(F)(F)F)c(N4CCCC4)c3)CC2)n1 [Example 106, N-(1-(1-(3-(pyrrolidin-1-yl)-4-(trifluoromethyl)benzyl)-1,8-diazaspiro[4.5]decane-8-carbonyl)-1H-pyrazol-3-yl)acetamide]
5 | 1000 to 10000 | 0 to 25 | ≤ 100 | ≥ 75 | 0 to 25 | CC(=O)Nc1ccn(C(=O)N2CCC3(CCCN3Cc3ccc(Cl)cc3N3CCC4(CCOCC4)C3)CC2)n1 [Example 9, N-(1-(1-(4-chloro-2-(8-oxa-2-azaspiro[4.5]decan-2-yl)benzyl)-1,8-diazaspiro[4.5]decane-8-carbonyl)-1H-pyrazol-3-yl)acetamide]
6 | 1000 to 10000 | 0 to 25 | ≤ 100 | ≥ 75 | 25 to 50 | CC(=O)Nc1ccn(C(=O)N2CCN(Cc3ccc(C(F)(F)F)cc3N3CC4CCC(C3)O4)CC2)n1 [Example 40, N-(1-(4-(2-(8-oxa-3-azabicyclo[3.2.1]octan-3-yl)-4-(trifluoromethyl)benzyl)piperazine-1-carbonyl)-1H-pyrazol-3-yl)acetamide]
7 | – | 0 to 25 | – | ≥ 75 | 0 to 25 | CS(=O)(=O)Nc1ccn(C(=O)N2CCC3(CCCN3Cc3ccc(C(F)(F)F)c(Cl)c3)CC2)n1 [Example 161, N-(1-(1-(3-chloro-4-(trifluoromethyl)benzyl)-1,8-diazaspiro[4.5]decane-8-carbonyl)-1H-pyrazol-3-yl) methanesulfonamide]
8 | 1000 to 10000 | 0 to 25 | ≤ 100 | ≥ 75 | 0 to 25 | Cc1c(CN2CCCC23CCN(C(=O)n2ccc(NS(C)(=O)=O)n2)CC3)cccc1N1CCCCC1 [Example 142, N-(1-(1-(2-methyl-3-(piperidin-1-yl)benzyl)-1,8-diazaspiro[4.5]decane-8-carbonyl)-1H-pyrazol-3-yl) methanesulfonamide]
9 | 1000 to 10000 | 0 to 25 | ≤ 100 | ≥ 75 | ≥ 75 | CC(=O)Nc1ccn(C(=O)N2CCN(Cc3ccc(C(F)(F)F)cc3N3CCCCC3)CC2)n1 [Example 39, N-(1-(4-(2-(piperidin-1-yl)-4-(trifluoromethyl)benzyl)piperazine-1-carbonyl)-1H-pyrazol-3-yl)acetamide]
10 | 1000 to 10000 | 0 to 25 | ≤ 100 | ≥ 75 | 0 to 25 | CC(=O)Nc1ccn(C(=O)N2CCC3(CCCN3Cc3ccc(Cl)cc3N3CCC4(C3)CN(S(C)(=O)=O)C4)CC2)n1 [Example 38, N-(1-(1-(4-chloro-2-(2-(methylsulfonyl)-2,6-diazaspiro[3.4]octan-6-yl)benzyl)-1,8-diazaspiro[4.5]decane-8-carbonyl)-1H-pyrazol-3-yl)acetamide]
11 | 1000 to 10000 | 0 to 25 | 1000 to 10000 | ≥ 75 | 0 to 25 | CC(=O)Nc1ccn(C(=O)N2CCN(Cc3cccc(C(F)(F)F)c3-c3nnn[nH]3)CC2)n1 [Example 223, N-(1-(4-(2-(1H-tetrazol-5-yl)-3-(trifluoromethyl)benzyl)piperazine-1-carbonyl)-1H-pyrazol-3-yl)acetamide]
12 | 1000 to 10000 | 0 to 25 | ≤ 100 | ≥ 75 | 0 to 25 | CC(=O)Nc1ccn(C(=O)N2CCN(Cc3ccc(C(F)(F)F)cc3N3CCN(S(C)(=O)=O)CC3)CC2)n1 [Example 41, N-(1-(4-(2-(4-(methylsulfonyl)piperazin-1-yl)-4-(trifluoromethyl)benzyl)piperazine-1-carbonyl)-1H-pyrazol-3-yl)acetamide]
13 | 1000 to 10000 | 0 to 25 | ≤ 100 | ≥ 75 | 0 to 25 | CC(=O)Nc1ccn(C(=O)N2CCC3(CCCN3Cc3ccc(Cl)cc3N3CCC4(CC3)CCN(S(C)(=O)=O)C4)CC2)n1 [Example 37, N-(1-(1-(4-chloro-2-(2-(methylsulfonyl)-2,8-diazaspiro[4.5]decan-8-yl)benzyl)-1,8-diazaspiro[4.5]decane-8-carbonyl)-1H-pyrazol-3-yl)acetamide]
14 | 1000 to 10000 | 0 to 25 | ≤ 100 | ≥ 75 | 25 to 50 | CC(=O)Nc1ccn(C(=O)N2CCN(Cc3ccc(C(F)(F)F)cc3N3CCN(C4CC4)CC3)CC2)n1 [Example 47, N-(1-(4-(2-(4-cyclopropylpiperazin-1-yl)-4-(trifluoromethyl)benzyl)piperazine-1-carbonyl)-1H-pyrazol-3-yl)acetamide]
15 | 1000 to 10000 | 0 to 25 | ≤ 100 | ≥ 75 | 0 to 25 | CC(=O)Nc1ccn(C(=O)N2CCN(Cc3cc(OC4CCS(=O)(=O)CC4)cc(C(F)(F)F)c3)CC2)n1 [Example 78, N-(1-(4-(3-((1,1-dioxidotetrahydro-2H-thiopyran-4-yl)oxy)-5-(trifluoromethyl)benzyl)piperazine-1-carbonyl)-1H-pyrazol-3-yl)acetamide]
16 | 1000 to 10000 | 0 to 25 | ≤ 100 | ≥ 75 | 50 to 75 | CS(=O)(=O)Nc1ccn(C(=O)N2CCN(Cc3cccc(Cl)c3N3CCC4(CCOCC4)C3)CC2)n1 [Example 290, N-(1-(4-(3-chloro-2-(8-oxa-2-azaspiro[4.5]decan-2-yl)benzyl)piperazine-1-carbonyl)-1H-pyrazol-3-yl) methanesulfonamide]
17 | 1000 to 10000 | 0 to 25 | 100 to 1000 | ≥ 75 | 0 to 25 | CC(=O)Nc1ccn(C(=O)N2CCC3(CCCN3Cc3ccc(C(F)(F)F)c(C(N)=O)c3)CC2)n1 [Example 107, 5-((8-(3-acetamido-1H-pyrazole-1-carbonyl)-1,8-diazaspiro[4.5]decan-1-yl)methyl)-2-(trifluoromethyl)benzamide]

Row | Structure (SMILES) | IC50 [1] [nM] | inhibition at 1 µM [1] [%] | IC50 [2] [nM] | inhibition at 1 µM [2] [%] | inhibition at 5 mg/kg [3] [%]
18 | CC(=O)Nc1ccn(C(=O)N2CCC3(CCCN3Cc3cc(N4C5CCC4COC5)cc(C(F)(F)F)c3)CC2)n1 [Example 62, N-(1-(1-(3-(3-oxa-8-azabicyclo[3.2.1]octan-8-yl)-5-(trifluoromethyl)benzyl)-1,8-diazaspiro[4.5]decane-8-carbonyl)-1H-pyrazol-3-yl)acetamide] | 1000 to 10000 | 0 to 25 | ≤ 100 | ≥ 75 | 0 to 25
